Tests used:
[1] = tested on: B-lymphocytes and T-cell populations; details: cited from earlier work
FaDu = experiment: Venetoclax cell killing (CellTiter-Glo); type: cell-based; details: Homo sapiens, 120 h, Hypopharyngeal, 10% FBS, 5 days
Description: (§1) Solid tumor cell lines were obtained from American Type Culture Collection (ATCC, Manassas, Va.) or the National Cancer Institute (NCI) and cultured in humidified incubators at 37° C. (5% CO2) in appropriate media (specified by supplier) supplemented with 10% fetal bovine serum (FBS) or 10% human serum (HS). 24 hours after plating into 96-well or 384-well tissue culture plates, venetoclax was added to cells at various concentrations (typically 0.010 to 10 μM in half-log increments) to perform concentration-response assessments of cell killing. After 1 to 5 days of culture in the presence of venetoclax, cell viability was assessed using CellTiter-Glo® reagent (Promega). IC50 values were determined by non-linear regression analysis of the concentration response data (Table 5 and Table 6).

SW1463 = experiment: Venetoclax cell killing (CellTiter-Glo); type: cell-based; details: Homo sapiens, SW1463, 120 h; Colorectal; 10% FBS; 5 days
Description: as §1

22Rv1 = experiment: Venetoclax cell killing (CellTiter-Glo); type: cell-based; details: Homo sapiens, 22Rv1, 48 h; Prostate; 10% FBS; 2 days
Description: as §1

SW620 = experiment: Venetoclax cell killing (CellTiter-Glo); type: cell-based; details: Homo sapiens, SW-620, 120 h; Colorectal; 10% FBS; 5 days
Description: as §1

NCI-H1975 = experiment: Venetoclax cell killing (CellTiter-Glo); type: cell-based; details: Homo sapiens, NCI-H1975, 72 h; Lung; 10% FBS; 3 days
Description: as §1

NCI-H441 = experiment: Venetoclax cell killing (CellTiter-Glo); type: cell-based; details: Homo sapiens, NCI-H441, 72 h; Lung; 10% FBS; 3 days
Description: as §1

HCC827 = experiment: Venetoclax cell killing (CellTiter-Glo); type: cell-based; details: Homo sapiens, HCC827, 72 h; Lung; 10% FBS; 3 days
Description: as §1

COLO-320DM = experiment: Venetoclax cell killing (CellTiter-Glo); type: cell-based; details: Homo sapiens, 120 h, Colorectal, 10% FBS, 5 days
Description: as §1

NCI-H661 = experiment: Venetoclax cell killing (CellTiter-Glo); type: cell-based; details: Homo sapiens, NCI-H661, 72 h; Lung; 10% FBS; 3 days
Description: as §1

NCI-H522 = experiment: Venetoclax cell killing (CellTiter-Glo); type: cell-based; details: Homo sapiens, NCI-H522, 72 h; Lung; 10% FBS; 3 days
Description: as §1

NCI-H1836 = experiment: Venetoclax cell killing (CellTiter-Glo); type: cell-based; details: Homo sapiens, NCI-H1836, 48 h; Lung; 10% HS; 2 days
Description: as §1

NCI-H1417 = experiment: Venetoclax cell killing (CellTiter-Glo); type: cell-based; details: Homo sapiens, NCI-H1417, 48 h; Lung; 10% HS; 2 days
Description: as §1

COLO-205 = experiment: Venetoclax cell killing (CellTiter-Glo); type: cell-based; details: Homo sapiens, COLO 205, 120 h; Colorectal; 10% FBS; 5 days
Description: as §1

LoVo = experiment: Venetoclax cell killing (CellTiter-Glo); type: cell-based; details: Homo sapiens, 120 h, Colorectal, 10% FBS, 5 days
Description: as §1

DU4475 = experiment: Venetoclax cell killing (CellTiter-Glo); type: cell-based; details: Homo sapiens, DU-4475, 120 h; Breast Cancer; 10% FBS; 5 days
Description: as §1

MDA-MB-468 = experiment: Venetoclax cell killing (CellTiter-Glo); type: cell-based; details: Homo sapiens, MDA-MB-468, 48 h; Breast Cancer; 10% FBS; 2 days
Description: as §1

NCI-H1963 = experiment: Venetoclax cell killing (CellTiter-Glo); type: cell-based; details: Homo sapiens, NCI-H1963, 24 h; Lung; 10% FBS; 1 day
Description: as §1

NCI-H526 = experiment: Venetoclax cell killing (CellTiter-Glo); type: cell-based; details: Homo sapiens, NCI-H526, 24 h; Lung; 10% FBS; 1 day
Description: as §1

NCI-H847 = experiment: Venetoclax cell killing (CellTiter-Glo); type: cell-based; details: Homo sapiens, 24 h; Lung; 10% FBS; 1 day
Description: as §1

NCI-H460 = experiment: Venetoclax cell killing (CellTiter-Glo); type: cell-based; details: Homo sapiens, NCI-H460, 72 h; Lung; 10% FBS; 3 days
Description: as §1

NCI-H524 = experiment: Venetoclax cell killing (CellTiter-Glo); type: cell-based; details: Homo sapiens, NCI-H524, 24 h; Lung; 10% FBS; 1 day
Description: as §1

C32 = experiment: Venetoclax cell killing (CellTiter-Glo); type: cell-based; details: Homo sapiens, C32, 120 h; Melanoma; 10% FBS; 5 days
Description: as §1

NCI-H508 = experiment: Venetoclax cell killing (CellTiter-Glo); type: cell-based; details: Homo sapiens, NCI-H508, 72 h; Colorectal; 10% FBS; 3 days
Description: as §1

NCI-H187 = experiment: Venetoclax cell killing (CellTiter-Glo); type: cell-based; details: Homo sapiens, NCI-H187, 48 h; Lung; 10% HS; 2 days
Description: as §1

NCI-H1993 = experiment: Venetoclax cell killing (CellTiter-Glo); type: cell-based; details: Homo sapiens, NCI-H1993, 72 h; Lung; 10% FBS; 3 days
Description: as §1

NCI-H209 = experiment: Venetoclax cell killing (CellTiter-Glo); type: cell-based; details: Homo sapiens, NCI-H209, 24 h; Lung; 10% FBS; 1 day
Description: as §1

LS411N = experiment: Venetoclax cell killing (CellTiter-Glo); type: cell-based; details: Homo sapiens, LS-411N, 120 h; Colorectal; 10% FBS; 5 days
Description: as §1

NCI-H1048 = experiment: Venetoclax cell killing (CellTiter-Glo); type: cell-based; details: Homo sapiens, NCI-H1048, 72 h; Lung; 10% FBS; 3 days
Description: as §1

For `CC1(C)CCC(CN2CCN(c3ccc(C(=O)NS(=O)(=O)c4ccc(NCC5CCOCC5)c([N+](=O)[O-])c4)c(Oc4cnc5[nH]ccc5c4)c3)CC2)=C(c2ccc(Cl)cc2)C1` [Compound (I), venetoclax], the “reductions in T-cell populations” value ([1]; Lu et al. 2017, Khaw et al. 2014) is listed as “up to 30%”, the “reductions in B-lymphocytes” value ([1]; clinically and in experimental studies) is listed as “significant reductions” and the IC50 (FaDu) is listed as greater than 10 µM. For the same molecule, the IC50 (SW1463) was greater than 10 µM, the IC50 (22Rv1) was greater than 10 µM and the IC50 (SW620) was greater than 10 µM. The IC50 (NCI-H1975) was greater than 10 µM, the IC50 (NCI-H441) was greater than 10 µM and the IC50 (HCC827) was greater than 10 µM. For the same molecule, the IC50 (COLO-320DM) was greater than 10 µM, the IC50 (NCI-H661) was greater than 10 µM and the IC50 (NCI-H522) was greater than 10 µM. It also gave an IC50 (NCI-H1836) greater than 5 µM, an IC50 (NCI-H1417) greater than 5 µM and an IC50 (COLO-205) greater than 10 µM. The IC50 (LoVo) was greater than 10 µM, the IC50 (DU4475) was greater than 10 µM and the IC50 (MDA-MB-468) was greater than 10 µM. The IC50 (NCI-H1963) was 4.59 µM, the IC50 (NCI-H526) was greater than 10 µM and the IC50 (NCI-H847) was greater than 10 µM. The IC50 (NCI-H460) was greater than 10 µM, the IC50 (NCI-H524) was greater than 10 µM and the IC50 (C32) was greater than 10 µM. For the same molecule, the IC50 (NCI-H508) was 4.45 µM, the IC50 (NCI-H187) was 3.04 µM and the IC50 (NCI-H1993) was 3.83 µM. The IC50 (NCI-H209) was greater than 10 µM, the IC50 (LS411N) was 5.1 µM and the IC50 (NCI-H1048) was greater than 10 µM.
